The values below are quoted from earlier work in patent US12205808B2 (priority 2019, dated 2025).

The conditions of the series: in vivo.

With `CC(C)[C@H](NC(=O)c1nn(CC2CCCCC2)c2ccccc12)C(N)=O`, the Concentration in plasma was 0.4 to 14.3 ng/mL and the Whole blood concentrations is 0.6 to 10 ng/mL. Consider `N#CCCCCn1cc(C(=O)c2cccc3ccccc23)c2ccccc21` [AM-2232], for which the “Concentration in postmortem plasma samples” value is 0.86 ng/mL. Consider `Cc1ccc(C(=O)c2cn(CCCCCF)c3ccccc23)c2ccccc12` [MAM-2201], for which the “Concentration in postmortem plasma samples” value was 16.3 ng/mL.
